Measurements: ChEMBL document CHEMBL1128811, “Isolation and structure of the exceptional Pterobranchia human cancer inhibitors cephalostatins 16 and 171” (1995)

Assays:
Type in all cases: functional
Tumor Cell line [1] = assay: In vitro cytotoxic potency against 60 human tumor cell lines at 10e-7 M concentration
Tumor Cell line [2] = assay: In vitro cytotoxic potency against 60 human tumor cell lines at 10e-8 M concentration
P388 = assay: Effective dose against P388 cell line […]; details: Mus musculus, read-out: ED50 (the source's name)

| EC50 (P388) | SMILES | GI50 (Tumor Cell line [1]) | GI50 (Tumor Cell line [2]) |
| --- | --- | --- | --- |
|  | C[C@@H]1[C@]2(O[C@H]3C=C4[C@@H]5CC[C@H]6Cc7nc8c(nc7C[C@]6(C)[C@H]5C[C@@H](O)[C@]4(C)[C@]31O)C[C@@H]1CC[C@H]3C4=CC[C@@H]5[C@H](C)[C@@]6(OC[C@]45C(=O)C[C@@H]3[C@@]1(C)C8)OC(C)(C)C[C@H]6O)O[C@](C)(CO)C[C@H]2O [CEPHALOSTATIN 1] | ~1 nM |  |
| < 1 ng/mL | C[C@@H]1[C@H]2CC=C3[C@@H]4CC[C@H]5Cc6nc7c(nc6C[C@]5(C)[C@@]4(O)CC(=O)[C@@]32CO[C@]12OC(C)(C)C[C@H]2O)C[C@@H]1CC[C@H]2C3=C[C@@H]4O[C@@]5(CC[C@](C)(O)CO5)[C@@H](C)[C@]4(O)[C@@]3(C)[C@H](O)C[C@@H]2[C@@]1(C)C7 [CEPHALOSTATIN 16] |  | ~1 nM |
